According to patent publication US20130303509A1, “NAMPT INHIBITORS” (AbbVie Inc., priority 2012, published 2013):

System: PC3 cells
Assay: NAMPT Cell Proliferation Assay
Assay type: cell-based
Settings: Homo sapiens, PC-3, 120 h, 5 days incubation, cell viability by Cell Titer Glo
Summary of the method: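 Seeded at 500 cells/well in RPMI with 10% heat-inactivated FBS and left to attach overnight at 37° C, 5% CO2. Compounds were added as 10-fold dilutions […] for 5 days, then viability was read by CellTiter-Glo. IC50s came from sigmoidal fits of percent inhibition.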

IC50	Compound
8.07 nM	CC(C)(C(=O)N1CC[C@@H](Oc2ccc(NC(=O)C3CN(c4ccnnc4)C3)cc2)C1)c1ccccc1 [Example 466, N-(4-{[(3R)-1-(2-methyl-2-phenylpropanoyl)pyrrolidin-3-yl]oxy}phenyl)-1-(pyridazin-4-yl)azetidine-3-carboxamide]
15.6 nM	O=C(Nc1ccc(O[C@@H]2CCN(C(=O)c3ccc(F)cc3F)C2)cc1)C1CN(c2ccnnc2)C1 [Example 467, N-(4-{[(3R)-1-(2,4-difluorobenzoyl)pyrrolidin-3-yl]oxy}phenyl)-1-(pyridazin-4-yl)azetidine-3-carboxamide]
730 nM	COCC(=O)N1CC[C@@H](Oc2ccc(NC(=O)C3CN(c4ccnnc4)C3)cc2)C1 [Example 468, N-(4-{[(3R)-1-(methoxyacetyl)pyrrolidin-3-yl]oxy}phenyl)-1-(pyridazin-4-yl)azetidine-3-carboxamide]
8.61 nM	O=C(Nc1ccc(O[C@@H]2CCN(C(=O)c3cccs3)C2)cc1)C1CN(c2ccnnc2)C1 [Example 469, 1-(pyridazin-4-yl)-N-(4-{[(3R)-1-(thiophen-2-ylcarbonyl)pyrrolidin-3-yl]oxy}phenyl)azetidine-3-carboxamide]
715 nM	O=C(Nc1ccc(O[C@@H]2CCN(C(=O)Cc3cccc(C(F)(F)F)c3)C2)cc1)C1CN(c2ccnnc2)C1 [Example 470, 1-(pyridazin-4-yl)-N-(4-{[(3R)-1-{[3-(trifluoromethyl)phenyl]acetyl}pyrrolidin-3-yl]oxy}phenyl)azetidine-3-carboxamide]
72 nM	CC(C)C(=O)N1CC[C@@H](Oc2ccc(NC(=O)C3CN(c4ccnnc4)C3)cc2)C1 [Example 471, N-(4-{[(3R)-1-(2-methylpropanoyl)pyrrolidin-3-yl]oxy}phenyl)-1-(pyridazin-4-yl)azetidine-3-carboxamide]
6.56 nM	O=C(Nc1ccc(O[C@@H]2CCN(C(=O)c3ccccc3F)C2)cc1)C1CN(c2ccnnc2)C1 [Example 472, N-(4-{[(3R)-1-(2-fluorobenzoyl)pyrrolidin-3-yl]oxy}phenyl)-1-(pyridazin-4-yl)azetidine-3-carboxamide]
9.3 nM	CCC(C)(C)C(=O)N1CC[C@@H](Oc2ccc(NC(=O)C3CN(c4ccnnc4)C3)cc2)C1 [Example 473, N-(4-{[(3R)-1-(2,2-dimethylbutanoyl)pyrrolidin-3-yl]oxy}phenyl)-1-(pyridazin-4-yl)azetidine-3-carboxamide]
68.5 nM	O=C(Nc1ccc(O[C@@H]2CCN(C(=O)c3cc(F)cc(F)c3)C2)cc1)C1CN(c2ccnnc2)C1 [Example 474, N-(4-{[(3R)-1-(3,5-difluorobenzoyl)pyrrolidin-3-yl]oxy}phenyl)-1-(pyridazin-4-yl)azetidine-3-carboxamide]
594 nM	O=C(Nc1ccc(O[C@@H]2CCN(C(=O)c3ccc(C(F)(F)F)cc3)C2)cc1)C1CN(c2ccnnc2)C1 [Example 475, 1-(pyridazin-4-yl)-N-[4-({(3R)-1-[4-(trifluoromethyl)benzoyl]pyrrolidin-3-yl}oxy)phenyl]azetidine-3-carboxamide]
17.4 nM	O=C(Nc1ccc(O[C@@H]2CCN(C(=O)c3cccc(F)c3)C2)cc1)C1CN(c2ccnnc2)C1 [Example 476, N-(4-{[(3R)-1-(3-fluorobenzoyl)pyrrolidin-3-yl]oxy}phenyl)-1-(pyridazin-4-yl)azetidine-3-carboxamide]
235 nM	O=C(Nc1ccc(O[C@@H]2CCN(C(=O)c3ccc(OC(F)(F)F)cc3)C2)cc1)C1CN(c2ccnnc2)C1 [Example 477, 1-(pyridazin-4-yl)-N-[4-({(3R)-1-[4-(trifluoromethoxy)benzoyl]pyrrolidin-3-yl}oxy)phenyl]azetidine-3-carboxamide]
14.3 nM	CC(C)CC(=O)N1CC[C@@H](Oc2ccc(NC(=O)C3CN(c4ccnnc4)C3)cc2)C1 [Example 478, N-(4-{[(3R)-1-(3-methylbutanoyl)pyrrolidin-3-yl]oxy}phenyl)-1-(pyridazin-4-yl)azetidine-3-carboxamide]
68.9 nM	O=C(Nc1ccc(O[C@@H]2CCN(C(=O)CC(F)(F)F)C2)cc1)C1CN(c2ccnnc2)C1 [Example 479, 1-(pyridazin-4-yl)-N-(4-{[(3R)-1-(3,3,3-trifluoropropanoyl)pyrrolidin-3-yl]oxy}phenyl)azetidine-3-carboxamide]
4.24 nM	O=C(Nc1ccc(O[C@@H]2CCN(C(=O)C(F)(F)c3ccccc3)C2)cc1)C1CN(c2ccnnc2)C1 [Example 480, N-[4-({(3R)-1-[difluoro(phenyl)acetyl]pyrrolidin-3-yl}oxy)phenyl]-1-(pyridazin-4-yl)azetidine-3-carboxamide]
12.1 nM	CC(C)(C)C(=O)N1CC[C@@H](Oc2ccc(NC(=O)C3CN(c4ccnnc4)C3)cc2)C1 [Example 481, N-(4-{[(3R)-1-(2,2-dimethylpropanoyl)pyrrolidin-3-yl]oxy}phenyl)-1-(pyridazin-4-yl)azetidine-3-carboxamide]
32.6 nM	O=C(Nc1ccc(O[C@@H]2CCN(C(=O)C3CCC(F)(F)CC3)C2)cc1)C1CN(c2ccnnc2)C1 [Example 482, N-[4-({(3R)-1-[(4,4-difluorocyclohexyl)carbonyl]pyrrolidin-3-yl}oxy)phenyl]-1-(pyridazin-4-yl)azetidine-3-carboxamide]

IC50	Compound
2.14 nM	O=C(Nc1ccc(O[C@@H]2CCN(C(=O)c3ccccc3Cl)C2)cc1)C1CN(c2cccnn2)C1 [Example 483, N-(4-{[(3R)-1-(2-chlorobenzoyl)pyrrolidin-3-yl]oxy}phenyl)-1-(pyridazin-3-yl)azetidine-3-carboxamide]
0.56 nM	O=C(Nc1ccc(O[C@@H]2CCN(C(=O)c3nccs3)C2)cc1)C1CN(c2cccnn2)C1 [Example 484, 1-(pyridazin-3-yl)-N-(4-{[(3R)-1-(1,3-thiazol-2-ylcarbonyl)pyrrolidin-3-yl]oxy}phenyl)azetidine-3-carboxamide]
6.35 nM	O=C(Nc1ccc(O[C@@H]2CCN(C(=O)CC3CC3)C2)cc1)C1CN(c2cccnn2)C1 [Example 485, N-(4-{[(3R)-1-(cyclopropylacetyl)pyrrolidin-3-yl]oxy}phenyl)-1-(pyridazin-3-yl)azetidine-3-carboxamide]
6.24 nM	CC[C@H](C)C(=O)N1CC[C@@H](Oc2ccc(NC(=O)C3CN(c4cccnn4)C3)cc2)C1 [Example 486, N-[4-({(3R)-1-[(2S)-2-methylbutanoyl]pyrrolidin-3-yl}oxy)phenyl]-1-(pyridazin-3-yl)azetidine-3-carboxamide]
72 nM	O=C(Nc1ccc(O[C@@H]2CCN(C(=O)C3CCOCC3)C2)cc1)C1CN(c2cccnn2)C1 [Example 487, 1-(pyridazin-3-yl)-N-(4-{[(3R)-1-(tetrahydro-2H-pyran-4-ylcarbonyl)pyrrolidin-3-yl]oxy}phenyl)azetidine-3-carboxamide]
64.2 nM	O=C(Nc1ccc(O[C@@H]2CCN(C(=O)Cc3ccc(OC(F)(F)F)cc3)C2)cc1)C1CN(c2cccnn2)C1 [Example 488, 1-(pyridazin-3-yl)-N-(4-{[(3R)-1-{[4-(trifluoromethoxy)phenyl]acetyl}pyrrolidin-3-yl]oxy}phenyl)azetidine-3-carboxamide]
2.07 nM	O=C(Nc1ccc(O[C@@H]2CCN(C(=O)c3ccc(F)cc3)C2)cc1)C1CN(c2cccnn2)C1 [Example 489, N-(4-{[(3R)-1-(4-fluorobenzoyl)pyrrolidin-3-yl]oxy}phenyl)-1-(pyridazin-3-yl)azetidine-3-carboxamide]
0.68 nM	O=C(Nc1ccc(O[C@@H]2CCN(C(=O)c3ccsc3)C2)cc1)C1CN(c2cccnn2)C1 [Example 490, 1-(pyridazin-3-yl)-N-(4-{[(3R)-1-(thiophen-3-ylcarbonyl)pyrrolidin-3-yl]oxy}phenyl)azetidine-3-carboxamide]
8.45 nM	O=C(Nc1ccc(O[C@@H]2CCN(C(=O)Cc3ccc(F)cc3)C2)cc1)C1CN(c2cccnn2)C1 [Example 491, N-[4-({(3R)-1-[(4-fluorophenyl)acetyl]pyrrolidin-3-yl}oxy)phenyl]-1-(pyridazin-3-yl)azetidine-3-carboxamide]
3.73 nM	O=C(Nc1ccc(O[C@@H]2CCN(C(=O)Cc3cc(F)cc(F)c3)C2)cc1)C1CN(c2cccnn2)C1 [Example 492, N-[4-({(3R)-1-[(3,5-difluorophenyl)acetyl]pyrrolidin-3-yl}oxy)phenyl]-1-(pyridazin-3-yl)azetidine-3-carboxamide]
6.73 nM	O=C(Nc1ccc(O[C@@H]2CCN(C(=O)c3ccc(F)c(F)c3)C2)cc1)C1CN(c2cccnn2)C1 [Example 493, N-(4-{[(3R)-1-(3,4-difluorobenzoyl)pyrrolidin-3-yl]oxy}phenyl)-1-(pyridazin-3-yl)azetidine-3-carboxamide]
1.05 nM	O=C(Nc1ccc(O[C@@H]2CCN(C(=O)Cc3cccc(F)c3)C2)cc1)C1CN(c2cccnn2)C1 [Example 494, N-[4-({(3R)-1-[(3-fluorophenyl)acetyl]pyrrolidin-3-yl}oxy)phenyl]-1-(pyridazin-3-yl)azetidine-3-carboxamide]
7.06 nM	O=C(Nc1ccc(O[C@@H]2CCN(C(=O)c3cccc(C(F)(F)F)c3)C2)cc1)C1CN(c2cccnn2)C1 [Example 495, 1-(pyridazin-3-yl)-N-[4-({(3R)-1-[3-(trifluoromethyl)benzoyl]pyrrolidin-3-yl}oxy)phenyl]azetidine-3-carboxamide]
6.3 nM	O=C(Nc1ccc(O[C@@H]2CCN(C(=O)Cc3ccc(F)cc3F)C2)cc1)C1CN(c2cccnn2)C1 [Example 496, N-[4-({(3R)-1-[(2,4-difluorophenyl)acetyl]pyrrolidin-3-yl}oxy)phenyl]-1-(pyridazin-3-yl)azetidine-3-carboxamide]
23.4 nM	O=C(Nc1ccc(O[C@@H]2CCN(C(=O)Cc3ccc(C(F)(F)F)cc3)C2)cc1)C1CN(c2cccnn2)C1 [Example 497, 1-(pyridazin-3-yl)-N-(4-{[(3R)-1-{[4-(trifluoromethyl)phenyl]acetyl}pyrrolidin-3-yl]oxy}phenyl)azetidine-3-carboxamide]
6.64 nM	O=C(Nc1ccc(O[C@@H]2CCN(C(=O)c3cscn3)C2)cc1)C1CN(c2cccnn2)C1 [Example 498, 1-(pyridazin-3-yl)-N-(4-{[(3R)-1-(1,3-thiazol-4-ylcarbonyl)pyrrolidin-3-yl]oxy}phenyl)azetidine-3-carboxamide]
